pIC50: −log10 of the molar value. Like-named read-outs stand apart in the source and are kept apart here. Where a SMILES comes first, the peptide text is derived from it. Bridges are numbered along the chain shown (N, C = ends). [ ]: non-standard residue; d: D form. The star is where a group is joined. DOTA = O=C(O)CN1CCN(CC(=O)O)CCN(CC(=O)*)CCN(CC(=O)O)CC1; Lys(Me3) = C[N+](C)(C)CCCC[C@H](N)C(=O)O; Pro(cis-4-F) = O=C(O)[C@@H]1C[C@H](F)CN1; Tyr(3-NH2) = Nc1cc(C[C@H](N)C(=O)O)ccc1O; Hyp = O=C(O)[C@@H]1C[C@@H](O)CN1; Pentanoyl(4-Me) = CC(C)CCC(=O)*; Cit = NC(=O)NCCC[C@H](N)C(=O)O; Butoxycarbonyl = CCCCOC(=O)*; Orn = NCCC[C@H](N)C(=O)O; Nva = CCC[C@H](N)C(=O)O; Hexanoyl = CCCCCC(=O)*; Pentanoyl = CCCCC(=O)*; Aib = CC(C)(N)C(=O)O; X7 = CCCOCC(=O)*
Experiments:
[1] = molecular target: T1, uPAR-expressing HEC-265 human endometrial adenocarcinoma cells (Homo sapiens, UniProt Q03405); assay: Competitive FACS binding assay; conditions: pIC50 category of FACS binding
T1 construct: Cell surface uPAR-expressing HEC-265 human endometrial adenocarcinoma cells; host or cells: HEC-265
T1 sequence (Q03405 23-335): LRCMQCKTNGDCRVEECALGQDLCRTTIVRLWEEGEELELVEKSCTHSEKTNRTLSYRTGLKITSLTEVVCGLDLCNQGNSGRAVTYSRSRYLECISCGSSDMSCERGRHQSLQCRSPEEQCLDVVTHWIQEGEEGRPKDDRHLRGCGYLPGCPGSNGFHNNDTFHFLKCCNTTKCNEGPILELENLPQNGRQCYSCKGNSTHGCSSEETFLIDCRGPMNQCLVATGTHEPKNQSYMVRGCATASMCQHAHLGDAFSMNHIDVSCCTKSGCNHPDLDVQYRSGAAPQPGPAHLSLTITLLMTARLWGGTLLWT
Outline: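 Competitive displacement of a 10 nM biotinylated peptide from HEC-265 cells (1 h, 4 °C, PBS/1% BSA), detected via APC-streptavidin by flow cytometry. pIC50 from four-parameter logistic fit of median fluorescence versus concentration.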

human uPAR (uPAR-Fc) = molecular target: T2, human uPAR (uPAR-Fc) (Homo sapiens, UniProt Q03405); assay: Surface plasmon resonance (SPR) assay, single cycle kinetics; assay type: binding; conditions: pKD category for uPAR SPR activity assay, uPAR-Fc on Protein A-Chip, 25°C, read-out: pKD CAT (converted)
T2 construct: comprising amino acids Leu23-Arg303 according to UniProt entry Q03405.1; purchased R&D Systems 10378-UK-100
T2 sequence (Q03405 23-303): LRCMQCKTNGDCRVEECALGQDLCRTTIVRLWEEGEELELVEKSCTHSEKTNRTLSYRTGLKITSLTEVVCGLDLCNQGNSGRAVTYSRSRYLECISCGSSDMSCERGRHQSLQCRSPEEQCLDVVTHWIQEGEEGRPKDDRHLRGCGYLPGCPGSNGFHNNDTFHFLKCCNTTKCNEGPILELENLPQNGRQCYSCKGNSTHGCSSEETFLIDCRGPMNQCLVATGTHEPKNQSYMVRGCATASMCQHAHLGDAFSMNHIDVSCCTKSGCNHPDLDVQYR
Outline: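 uPAR-Fc (Leu23-Arg303 extracellular domains, human IgG1 Fc) captured on Protein A chip to ~2000 RU; single-cycle kinetics at 25°C in HEPES running buffer pH 7.4 with 0.1% DMSO. KD from double-referenced sensorgrams fitted to 1:1 Langmuir model, reported as pKD.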

| SMILES | pIC50 [1] | Kd (human uPAR (uPAR-Fc)) | Kd (human uPAR (uPAR-Fc); single cycle kinetics) |
| --- | --- | --- | --- |
| CCCCOC(=O)N[C@H]1CSSC[C@@H](C(N)=O)NC(=O)[C@H](CCC)NC(=O)[C@H]([C@@H](C)CC)NC(=O)[C@@H]2C[C@@H](O)CN2C(=O)[C@@H]2C[C@H](F)CN2C(=O)[C@H](Cc2ccccc2)NC(=O)[C@H](Cc2ccc(O)c(N)c2)NC(=O)[C@H](CCCNC(=O)CN2CCN(CC(=O)O)CCN(CC(=O)O)CCN(CC(=O)O)CC2)NC(=O)[C@H]([C@@H](C)O)NC1=O [UPAR-234, Butoc-[Cys-Thr-Orn(DOTA)-Ay3-Phe-4Cfp-Hyp-Ile-Nva-Cys]-NHz] (Butoxycarbonyl-CT[Orn](DOTA)[Tyr(3-NH2)]F[Pro(cis-4-F)][Hyp]I[Nva]C-NH2; disulfide 1-10) | ≥ 8.00 | < 1.58 nM | – |
| CCCCC(=O)N[C@H]1CSSC[C@@H](C(N)=O)NC(=O)[C@H](CCC)NC(=O)[C@H]([C@@H](C)CC)NC(=O)[C@@H]2C[C@@H](O)CN2C(=O)[C@@H]2CCCN2C(=O)[C@H](Cc2ccccc2)NC(=O)[C@H](Cc2ccc(O)cc2)NC(=O)[C@H](CCCCNC(=O)CN2CCN(CC(=O)O)CCN(CC(=O)O)CCN(CC(=O)O)CC2)NC(=O)[C@H](CCCC[N+](C)(C)C)NC1=O [UPAR-153, Pent-[Cys-KMe3-Lys(DOTA)-Tyr-Phe-Pro-Hyp-Ile-Nva-Cys]-NH2] (Pentanoyl-C[Lys(Me3)]K(DOTA)YFP[Hyp]I[Nva]C-NH2; disulfide 1-10) | ≥ 8.00 | < 1.58 nM | – |
| CCCCCC(=O)N[C@@H](CO)C(=O)N[C@@H](CC(C)C)C(=O)N[C@H]1CSSC[C@@H](C(N)=O)NC(=O)[C@H](CC(C)C)NC(=O)[C@H]([C@@H](C)CC)NC(=O)[C@H](C)NC(=O)[C@@H]2CCCN2C(=O)[C@H](Cc2ccccc2)NC(=O)[C@H](Cc2ccccc2)NC(=O)[C@H](CCC(N)=O)NC(=O)[C@H](CC(=O)O)NC1=O [UPAR-202, Hex-Ser-Leu-[Cys-Asp-Gln-Phe-Phe-Pro-Ala-Ile-Leu-Cys]-NH2] (Hexanoyl-SLCDQFFPAILC-NH2; disulfide 3-12) | ≥ 8.00 | < 1.58 nM | – |
| CCCCOC(=O)N[C@H]1CSSC[C@@H](C(N)=O)NC(=O)[C@H](CCC)NC(=O)[C@H]([C@@H](C)CC)NC(=O)[C@@H]2C[C@@H](O)CN2C(=O)[C@@H]2CCCN2C(=O)[C@H](Cc2ccccc2)NC(=O)[C@H](Cc2ccc(O)cc2)NC(=O)[C@H](CCCCNC(=O)CN2CCN(CC(=O)O)CCN(CC(=O)O)CCN(CC(=O)O)CC2)NC(=O)[C@H]([C@@H](C)O)NC1=O [UPAR-248, Butoc-[Cys-Thr-Lys(DOTA)-Tyr-Phe-Pro-Hyp-Ile-Nva-Cys]-NH2] (Butoxycarbonyl-CTK(DOTA)YFP[Hyp]I[Nva]C-NH2; disulfide 1-10) | ≥ 8.00 | < 1.58 nM | – |

More lines, now with the values ahead:

| pIC50 [1] | Kd (human uPAR (uPAR-Fc)) | Kd (human uPAR (uPAR-Fc); single cycle kinetics) | SMILES |
| --- | --- | --- | --- |
| ≥ 8.00 | – | < 1.58 nM | CCCCCC(=O)N[C@H]1CSSC[C@@H](C(N)=O)NC(=O)[C@H](CC(C)C)NC(=O)[C@H]([C@@H](C)CC)NC(=O)[C@@H](C)NC(=O)[C@@H]2CCCN2C(=O)[C@H](Cc2ccccc2)NC(=O)[C@H](Cc2ccc(O)cc2)NC(=O)[C@H](CCC(N)=O)NC(=O)[C@H](CCCNC(N)=O)NC1=O [UPAR-475, Hex-[Cys-Cit-Gln-Tyr-Phe-Pro-ala-Ile-Leu-Cys]-NH2] (Hexanoyl-C[Cit]QYFP[dA]ILC-NH2; disulfide 1-10) |
| 7.50 to 7.90 | 10 to 100 nM | – | CCCOCC(=O)N[C@H]1CSSC[C@@H](C(N)=O)NC(=O)[C@H](CC(C)C)NC(=O)[C@H]([C@@H](C)CC)NC(=O)[C@@H](C)NC(=O)[C@@H]2CCCN2C(=O)[C@H](Cc2ccccc2)NC(=O)[C@H](Cc2ccc(O)cc2)NC(=O)[C@H](CCC(N)=O)NC(=O)[C@H](CCCNC(N)=O)NC1=O [UPAR-212, PrOAc-[Cys-Cit-Gln-Tyr-Phe-Pro-ala-Ile-Leu-Cys]-NH2] (X7-C[Cit]QYFP[dA]ILC-NH2; disulfide 1-10) |
| ≥ 8.00 | < 1.58 nM | – | CCCCC(=O)N[C@H]1CSSC[C@@H](C(N)=O)NC(=O)[C@H](CCC)NC(=O)[C@H]([C@@H](C)CC)NC(=O)[C@@H](CO)NC(=O)[C@@H]2CCCN2C(=O)[C@H](Cc2ccccc2)NC(=O)[C@H](Cc2ccc(O)cc2)NC(=O)[C@H](CCC(N)=O)NC(=O)[C@H](CCCNC(=N)N)NC1=O [UPAR-329, Pent-[Cys-Arg-Gln-Tyr-Phe-Pro-ser-Ile-Nva-Cys]-NH2] (Pentanoyl-CRQYFP[dS]I[Nva]C-NH2; disulfide 1-10) |
| ≥ 8.00 | – | 1.58 to 10 nM | CC[C@H](C)[C@@H]1NC(=O)[C@@H](C)NC(=O)[C@@H]2CCCN2C(=O)[C@H](Cc2ccccc2)NC(=O)[C@H](Cc2ccc(O)cc2)NC(=O)[C@H](CCC(N)=O)NC(=O)C(C)(C)NC(=O)[C@@H](NC(=O)CCC(C)C)CSSC[C@@H](C(N)=O)NC(=O)[C@H](CC(C)C)NC1=O [UPAR-468, iHex-[Cys-Aib-Gln-Tyr-Phe-Pro-ala-Ile-Leu-Cys]-NH2] ({Pentanoyl(4-Me)}-C[Aib]QYFP[dA]ILC-NH2; disulfide 1-10) |
